B1: AAA (bacterium CSBL00001) (protein)
chain: MGKSHSPVHWKSAAEIVELVKSKQISPREVVESTIDLIEQRDPGLNAVVYKAYDEAREKAAALERRIMQGEPVGMLAGVPTLMKDLFAAKPGWPSTLGGIRALKDARGAAGVWSTYPLKMSGEDSLLLGQTNSPVYGFRGTTDNTFFGPTRNPFNLDFNAGGSSGGAAALVADGIVPVAGGTDGGGSIRIPAAWTNTYGFQPSIGRVPFKSRPNAFHPGPYLYEGPITRTVRDAALAMNVLHGFDRRDPASLRVKLDFTSALAQGVRGKKIGLTLNYGVFPVQQEIQDLIGKAARVFTELGAHVEFVDLGIPYSQKQMSDAWCRMIAIPTVASMQALRKEGIDLYGEHRADIPDALMKWIDAVADISVQQISADQLLRTTVFDCMNGVFDRFDLLLAPTLACMPVRNATDGCTEGPSQINGEEIDPLIGWCMTYLTNFSGHPSASVPAGLIDGLPAGMLIIGDRQADLDVIAASAAFERASPWSQYYDIPAGRPL
notes: His6-tagged, plasmid pET-aaa (pET-28a(+)), expressed in E. coli BL21(DE3), Ni-NTA purified

Key:
Experiment in all cases: UV-vis spectrophotometric hydrolysis assay, Michaelis-Menten fit
ApaA = tested on: T1, ApaA; type: biochemical, Rhodococcus sp. NyZ502; conditions: 100 mM phosphate buffer pH 7.4; 30 °C
T1 construct: His6-tagged, plasmid pTIP-apaA (pTIPQC1), expressed in Rhodococcus erythropolis L88, Ni-NTA purified

[1] = substrate: CC(=O)Nc1ccc(O)cc1; type: biochemical, bacterium CSBL00001; conditions: 100 mM phosphate buffer pH 7.4, 30 °C
[2] = substrate: CC(=O)Nc1ccc([N+](=O)[O-])cc1; type: biochemical, bacterium CSBL00001; conditions: 100 mM phosphate buffer pH 7.4, 30 °C

Row | Molecule | Km (ApaA) [µM] | Km [1] [µM] | Km [2] [µM] | kcat [2] [s⁻¹]
1 | CC(=O)Nc1ccc([N+](=O)[O-])cc1 [4-nitroacetanilide] | 26.6 ± 4.21 |  |  | 
2 | CC(=O)Nc1ccc(O)cc1 [Acetaminophen] | 8.96 |  |  | 
3 | CC(=O)Nc1ccccc1 [acetanilide] | 30.2 ± 3.86 |  |  | 
4 | B1 |  | 22.13 | 16.82 ± 5.55 | 5.65 ± 0.54
